ChEMBL document CHEMBL4251615, “Discovery of anilino-furo[2,3-d]pyrimidine derivatives as dual inhibitors of EGFR/HER2 tyrosine kinase and their anticancer activity” (Eur J Med Chem, 2018)

What was measured:
Format in all cases: functional
[1] = test system: CCRF-CEM; assay: Growth inhibition of human CCRF-CEM cells assessed as cell growth at 10 uM incubated for 48 hrs by sulforhodamine B assay relative to control; conditions: read-out: Activity
[2] = test system: K562; assay: Growth inhibition of human K562 cells assessed as cell growth at 10 uM incubated for 48 hrs by sulforhodamine B assay relative to control; conditions: K562, 48 h, read-out: Activity
[3] = test system: MOLT-4; assay: Growth inhibition of human MOLT4 cells assessed as cell growth at 10 uM incubated for 48 hrs by sulforhodamine B assay relative to control; conditions: MOLT-4, 48 h, read-out: Activity
[4] = test system: RPMI-8226; assay: Growth inhibition of human RPMI8226 cells assessed as cell growth at 10 uM incubated for 48 hrs by sulforhodamine B assay relative to control; conditions: RPMI-8226, 48 h, read-out: Activity
[5] = test system: SR; assay: Growth inhibition of human SR cells assessed as cell growth at 10 uM incubated for 48 hrs by sulforhodamine B assay relative to control; conditions: read-out: Activity
[6] = test system: A549; assay: Growth inhibition of human A549/ATCC cells assessed as cell growth at 10 uM incubated for 48 hrs by sulforhodamine B assay relative to control; conditions: A549, 48 h, read-out: Activity
[7] = test system: EKVX; assay: Growth inhibition of human EKVX cells assessed as cell growth at 10 uM incubated for 48 hrs by sulforhodamine B assay relative to control; conditions: read-out: Activity
[8] = test system: HOP-62; assay: Growth inhibition of human HOP62 cells assessed as cell growth at 10 uM incubated for 48 hrs by sulforhodamine B assay relative to control; conditions: HOP-62, 48 h, read-out: Activity
[9] = test system: NCI-H23; assay: Growth inhibition of human NCI-H23 cells assessed as cell growth at 10 uM incubated for 48 hrs by sulforhodamine B assay relative to control; conditions: NCI-H23, 48 h, read-out: Activity
[10] = test system: NCI-H522; assay: Growth inhibition of human NCI-H522 cells assessed as cell growth at 10 uM incubated for 48 hrs by sulforhodamine B assay relative to control; conditions: NCI-H522, 48 h, read-out: Activity
[11] = test system: COLO 205; assay: Growth inhibition of human COLO205 cells assessed as cell growth at 10 uM incubated for 48 hrs by sulforhodamine B assay relative to control; conditions: COLO 205, 48 h, read-out: Activity
[12] = test system: HCT-15; assay: Growth inhibition of human HCT15 cells assessed as cell growth at 10 uM incubated for 48 hrs by sulforhodamine B assay relative to control; conditions: HCT-15, 48 h, read-out: Activity
[13] = test system: SW-620; assay: Growth inhibition of human SW620 cells assessed as cell growth at 10 uM incubated for 48 hrs by sulforhodamine B assay relative to control; conditions: SW-620, 48 h, read-out: Activity
[14] = test system: SF-268; assay: Growth inhibition of human SF268 cells assessed as cell growth at 10 uM incubated for 48 hrs by sulforhodamine B assay relative to control; conditions: SF-268, 48 h, read-out: Activity
[15] = test system: SF-295; assay: Growth inhibition of human SF295 cells assessed as cell growth at 10 uM incubated for 48 hrs by sulforhodamine B assay relative to control; conditions: SF-295, 48 h, read-out: Activity
[16] = test system: SF-539; assay: Growth inhibition of human SF539 cells assessed as cell growth at 10 uM incubated for 48 hrs by sulforhodamine B assay relative to control; conditions: SF-539, 48 h, read-out: Activity
[17] = test system: SNB-19; assay: Growth inhibition of human SNB19 cells assessed as cell growth at 10 uM incubated for 48 hrs by sulforhodamine B assay relative to control; conditions: SNB-19, 48 h, read-out: Activity
[18] = test system: LOX IMVI; assay: Growth inhibition of human LOXIMVI cells assessed as cell growth at 10 uM incubated for 48 hrs by sulforhodamine B assay relative to control; conditions: read-out: Activity
[19] = test system: Malme-3M; assay: Growth inhibition of human MALME-3M cells assessed as cell growth at 10 uM incubated for 48 hrs by sulforhodamine B assay relative to control; conditions: read-out: Activity
[20] = test system: MDA-MB-435; assay: Growth inhibition of human MDA-MB-435 cells assessed as cell growth at 10 uM incubated for 48 hrs by sulforhodamine B assay relative to control; conditions: MDA-MB-435, 48 h, read-out: Activity
[21] = test system: SK-MEL-28; assay: Growth inhibition of human SK-MEL-28 cells assessed as cell growth at 10 uM incubated for 48 hrs by sulforhodamine B assay relative to control; conditions: SK-MEL-28, 48 h, read-out: Activity
[22] = test system: SK-MEL-5; assay: Growth inhibition of human SK-MEL-5 cells assessed as cell growth at 10 uM incubated for 48 hrs by sulforhodamine B assay relative to control; conditions: SK-MEL-5, 48 h, read-out: Activity
[23] = test system: OVCAR-3; assay: Growth inhibition of human OVCAR3 cells assessed as cell growth at 10 uM incubated for 48 hrs by sulforhodamine B assay relative to control; conditions: OVCAR-3, 48 h, read-out: Activity
[24] = test system: OVCAR-4; assay: Growth inhibition of human OVCAR4 cells assessed as cell growth at 10 uM incubated for 48 hrs by sulforhodamine B assay relative to control; conditions: OVCAR-4, 48 h, read-out: Activity
[25] = test system: OVCAR-5; assay: Growth inhibition of human OVCAR5 cells assessed as cell growth at 10 uM incubated for 48 hrs by sulforhodamine B assay relative to control; conditions: OVCAR-5, 48 h, read-out: Activity
[26] = test system: NCI/ADR-RES; assay: Growth inhibition of human NCI/ADR-RES cells assessed as cell growth at 10 uM incubated for 48 hrs by sulforhodamine B assay relative to control; conditions: read-out: Activity
[27] = test system: 786-0; assay: Growth inhibition of human 786-0 cells assessed as cell growth at 10 uM incubated for 48 hrs by sulforhodamine B assay relative to control; conditions: 786-0, 48 h, read-out: Activity
[28] = test system: CAKI-1; assay: Growth inhibition of human Caki1 cells assessed as cell growth at 10 uM incubated for 48 hrs by sulforhodamine B assay relative to control; conditions: CAKI-1, 48 h, read-out: Activity
[29] = test system: RXF 393; assay: Growth inhibition of human RXF393 cells assessed as cell growth at 10 uM incubated for 48 hrs by sulforhodamine B assay relative to control; conditions: RXF 393, 48 h, read-out: Activity
[30] = test system: UO-31; assay: Growth inhibition of human UO31 cells assessed as cell growth at 10 uM incubated for 48 hrs by sulforhodamine B assay relative to control; conditions: UO-31, 48 h, read-out: Activity
[31] = test system: PC-3; assay: Growth inhibition of human PC3 cells assessed as cell growth at 10 uM incubated for 48 hrs by sulforhodamine B assay relative to control; conditions: PC-3, 48 h, read-out: Activity
[32] = test system: MCF7; assay: Growth inhibition of human MCF7 cells assessed as cell growth at 10 uM incubated for 48 hrs by sulforhodamine B assay relative to control; conditions: MCF7, 48 h, read-out: Activity
[33] = test system: T47D; assay: Growth inhibition of human T47D cells assessed as cell growth at 10 uM incubated for 48 hrs by sulforhodamine B assay relative to control; conditions: read-out: Activity

Structure (SMILES) | growth at 10 µM [1] [%] | growth at 10 µM [2] [%] | growth at 10 µM [3] [%] | growth at 10 µM [4] [%] | growth at 10 µM [5] [%] | growth at 10 µM [6] [%] | growth at 10 µM [7] [%] | growth at 10 µM [8] [%] | growth at 10 µM [9] [%] | growth at 10 µM [10] [%] | growth at 10 µM [11] [%] | growth at 10 µM [12] [%] | growth at 10 µM [13] [%] | growth at 10 µM [14] [%] | growth at 10 µM [15] [%] | growth at 10 µM [16] [%] | growth at 10 µM [17] [%] | growth at 10 µM [18] [%] | growth at 10 µM [19] [%] | growth at 10 µM [20] [%] | further results
Cc1oc2ncnc(Nc3ccc(OCc4cccc(F)c4)c(Cl)c3)c2c1C(=O)NCCO | 89.5 | 33.2 | 68.5 | 70.2 | 99.7 | 53.5 | 47.8 | 51.1 | 58.6 | 27.9 | 85.7 | 61.1 | 93.4 | 47.2 | 49.5 | 47.4 | 34.3 | 61.5 | 52.3 | 62.6 | growth at 10 µM [21]: 50.6%; growth at 10 µM [22]: 73.1%; growth at 10 µM [23]: 78.1%; growth at 10 µM [24]: 66.9%; growth at 10 µM [25]: 96.9%; growth at 10 µM [26]: 70.8%; growth at 10 µM [27]: 61.2%; growth at 10 µM [28]: 74.2%; growth at 10 µM [29]: 60%; growth at 10 µM [30]: 57.6%; growth at 10 µM [31]: 57.5%; growth at 10 µM [32]: 62.9%; growth at 10 µM [33]: 34.7%
Cc1cccc(Nc2ncnc3oc(C)c(C(=O)NCCN4CCOCC4)c23)c1 | 99.7 | 98.3 | 111 | 89.5 | 126 | 102 | 92.6 | 93.1 | 92.5 | 89.9 | 101 | 94.9 | 98.9 | 93.3 | 94 | 95.4 | 91 | 93.2 | 97.2 | 101 | growth at 10 µM [21]: 100%; growth at 10 µM [22]: 96.9%; growth at 10 µM [23]: 102%; growth at 10 µM [24]: 110%; growth at 10 µM [25]: 81.8%; growth at 10 µM [26]: 94.7%; growth at 10 µM [27]: 92.4%; growth at 10 µM [28]: 90.2%; growth at 10 µM [29]: 86.3%; growth at 10 µM [30]: 75.6%; growth at 10 µM [31]: 101%; growth at 10 µM [32]: 96.2%; growth at 10 µM [33]: 106%
Cc1oc2ncnc(Nc3ccccc3)c2c1C(=O)NCCO | 97.4 | 29.4 | -0.28 | 94.8 | 52.2 | 98.1 | 97.6 | 99 | 92 | 96.6 | 100 | 98 | 95.1 | 99.8 | 100 | 88.6 | 93.9 | 95.4 | 107 | 102 | growth at 10 µM [21]: 99%; growth at 10 µM [22]: 97.5%; growth at 10 µM [23]: 102%; growth at 10 µM [24]: 103%; growth at 10 µM [25]: 93.2%; growth at 10 µM [26]: 102%; growth at 10 µM [27]: 98.7%; growth at 10 µM [28]: 90.8%; growth at 10 µM [29]: 104%; growth at 10 µM [30]: 87.7%; growth at 10 µM [31]: 107%; growth at 10 µM [32]: 98.6%; growth at 10 µM [33]: 99.4%
